According to patent publication US12492173B2, “Herbicidal substituted N-tetrazolyl aryl carboxamides” (Bayer Aktiengesellschaft, priority 2019, dated 2025):

Tests used:
Assay type in all cases: in vivo
[1] = system: Abutilon theophrasti; experiment: Post-emergence herbicidal action, ABUTH; set-up: key: % herbicidal action vs untreated; 100 = plants died, 0 = like control
Method in brief: (§1)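 Foliar application at the one-leaf stage of greenhouse-grown plants in sandy loam; compound applied as WP or EC in 600–800 l/ha water containing 0.2% wetting agent. Scores are visual percentages (0% like control, 100% plants died) taken after roughly 3 weeks.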

[2] = system: Echinochloa crus-galli; experiment: Post-emergence herbicidal action, ECHCG; set-up: key: % herbicidal action vs untreated; 100 = plants died, 0 = like control
Method in brief: as §1

[3] = system: Pharbitis purpurea; experiment: Post-emergence herbicidal action, PHBPU
Method in brief: as §1

[4] = system: Matricaria inodora; experiment: Post-emergence herbicidal action, MATIN; set-up: key: % herbicidal action vs untreated; 100 = plants died, 0 = like control
Method in brief: as §1

[5] = system: Amaranthus retroflexus; experiment: Post-emergence herbicidal action, AMARE; set-up: key: % herbicidal action vs untreated; 100 = plants died, 0 = like control
Method in brief: as §1

[6] = system: Amaranthus retroflexus; experiment: Pre-emergence herbicidal action, AMARE; settings: dosage 320 g/ha, scored visually after 3 weeks vs untreated controls (100% = plants have died)
Method in brief: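 Greenhouse pre-emergence test: formulated compound (WP or EC) applied in water to the soil covering sown seeds, 600–800 l/ha, 0.2% wetting agent. Scored visually in percent at 3 weeks versus untreated plants.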

| SMILES | herbicidal action ABUTH ([1]; Dosage 80 g/ha) | herbicidal action ECHCG ([2]; Dosage 80 g/ha) | herbicidal action PHBPU ([3]; Dosage 80 g/ha) | herbicidal action MATIN ([4]; Dosage 80 g/ha) | herbicidal action AMARE ([5]; Dosage 80 g/ha) | herbicidal activity AMARE [6] [%] | herbicidal action ABUTH ([1]; post-emergence, dosage 80 g/ha) [%] | herbicidal action ECHCG ([2]; post-emergence, dosage 80 g/ha) [%] | herbicidal action PHBPU ([3]; post-emergence, dosage 80 g/ha) [%] | herbicidal action MATIN ([4]; post-emergence, dosage 80 g/ha) [%] | herbicidal action AMARE ([5]; post-emergence, dosage 80 g/ha) [%] |
| --- | --- | --- | --- | --- | --- | --- | --- | --- | --- | --- | --- |
| CCCn1nnnc1NC(=O)c1ccc(C(F)F)c(CSC)c1Cl [Example 3-320] | 100 | 100 | 90 | 100 | 80 | 100 | – | – | – | – | – |
| CCCn1nnnc1NC(=O)c1ccc(C(F)(F)F)c(C[S+](C)[O-])c1Br (stereo not drawn) [Example 3-381] | – | – | – | – | – | 100 | 90 | 90 | 100 | 90 | 90 |
| CCCn1nnnc1NC(=O)c1ccc(C(F)(F)F)c(CSCC)c1Br [Example 3-383] | 90 | 90 | 90 | 100 | 90 | 100 | – | – | – | – | – |
| CCCn1nnnc1NC(=O)c1ccc(C(F)(F)F)c(CS(=O)(=O)CC)c1Br [Example 3-385] | 100 | 100 | 90 | 90 | 90 | 100 | – | – | – | – | – |
